Values quoted from earlier work in US20230330115A1 (priority 2022, published 2023).
“Also recorded” adds a separate entry of the source.

Legend:
CB1 receptor = details: read-out: Binding Affinity CB1
CB1 = CB1 (Homo sapiens, UniProt P21554); details: read-out: Functional Activity CB1
CB2 [1] = biological target: T1, CB2 (Homo sapiens, UniProt P34972); details: read-out: Functional Activity CB2
CB2 [2] = biological target: T1, CB2; details: read-out: Binding Affinity CB2
rodents = rodents administered THCB

Chain of CB1 (P21554 whole entry): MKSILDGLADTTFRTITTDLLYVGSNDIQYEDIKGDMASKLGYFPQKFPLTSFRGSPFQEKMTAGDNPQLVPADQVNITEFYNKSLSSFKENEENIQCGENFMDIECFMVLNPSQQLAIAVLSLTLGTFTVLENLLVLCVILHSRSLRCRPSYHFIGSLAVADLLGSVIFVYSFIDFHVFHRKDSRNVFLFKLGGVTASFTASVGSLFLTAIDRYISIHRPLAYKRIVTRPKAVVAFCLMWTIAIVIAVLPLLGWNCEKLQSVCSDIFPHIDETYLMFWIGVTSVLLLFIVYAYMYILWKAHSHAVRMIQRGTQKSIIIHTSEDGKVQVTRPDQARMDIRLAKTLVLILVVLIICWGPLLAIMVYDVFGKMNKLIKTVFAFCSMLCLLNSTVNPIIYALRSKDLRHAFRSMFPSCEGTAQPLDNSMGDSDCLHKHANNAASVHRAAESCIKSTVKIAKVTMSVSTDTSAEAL
T1 sequence (P34972 whole entry): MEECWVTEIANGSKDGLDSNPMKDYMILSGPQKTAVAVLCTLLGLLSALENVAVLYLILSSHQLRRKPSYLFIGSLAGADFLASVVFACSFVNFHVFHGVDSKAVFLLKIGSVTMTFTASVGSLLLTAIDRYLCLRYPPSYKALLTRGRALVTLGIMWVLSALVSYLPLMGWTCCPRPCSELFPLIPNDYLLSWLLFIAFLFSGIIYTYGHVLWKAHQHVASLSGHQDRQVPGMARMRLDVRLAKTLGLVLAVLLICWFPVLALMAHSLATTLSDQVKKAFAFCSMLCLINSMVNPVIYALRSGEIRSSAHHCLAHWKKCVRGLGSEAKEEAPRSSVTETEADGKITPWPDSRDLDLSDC

Molecule | Ki (CB1 receptor) | EC50 (CB1) | EC50 (CB2 [1]) | Ki (CB2 [2]) | further results
CCCCCc1cc(O)c(C/C=C(\C)CCC=C(C)C)c(O)c1 [CBG, Cannabigerol] | 440 nM | > 10000 nM | 1160 nM | – | –
CCCCCCCc1cc(O)c2c(c1)OC(C)(C)[C@@H]1CCC(C)=C[C@@H]21 (relative stereo) [THCP, (—)trans-delta-9-tetrahydrocannabiphorol] | 1.2 nM | – | – | – | hypothermia, dose dependence (mice; 5 mg/Kg vs 10 mg/Kg): does appear to increase at higher doses; potency at CB1 relative to THC (mice; Tetrad Test in mice, even at low doses (5 mg/kg of body weight)): about 30 times; effects in mice (Tetrad Test criteria) (mice; mice): hypomotility, analgesia, catalepsy and decreased rectal temperature; dose dependence of the effects (mice; mice, increasing dose (5 mg/Kg vs 10 mg/Kg)): do not appear to increase as the dose increases
CCCCCc1cc(O)c(C/C=C(\C)CCC=C(C)C)c(O)c1C(=O)O [CBGA, Cannabigerolic acid] | 4530 nM | 182 ± 32 nM | 118 ± 27 nM | > 10000 nM | –
C=C(C)[C@@H]1CCC(C)=C[C@H]1c1c(O)cc(CCC)cc1O [CBDV, Cannabidivarin] | 503 ± 58 nM | > 10000 nM | 3 ± 8 nM | 3970 nM | –
Cannabichromanone D [CBCN D] | 7120 nM | 8 ± 0.9 nM | 3940 nM | 2830 nM | –
CCCCCc1cc(O)c2c(c1)OC(C)(C)c1ccc(C)cc1-2 [CBN, Cannabinol] | 368 ± 121 nM | 307 ± 39 nM | 289 ± 38 nM | 168 ± 32 nM | –
CCCCCc1cc2c(c(O)c1C(=O)O)[C@@H]1C=C(C)CC[C@H]1C(C)(C)O2 (relative stereo) [THCA, (—)trans-delta-9-tetrahydrocannabinolic acid] | 1290 nM | > 10000 nM | > 10000 nM | 1650 nM | –
CCCCCc1cc(O)c2c(c1)OC(C)(C)[C@@H]1CCC(CO)=C[C@@H]21 [11-Hydroxy, 11-OH-delta-9-tetrahydrocannabinol] | < 200 nM | < 200 nM | – | – | –
CCCCc1cc(O)c2c(c1)OC(C)(C)[C@@H]1CCC(C)=C[C@@H]21 (relative stereo) [THCB, (—)trans-delta-9-tetrahydrocannabibutol] | 15 nM | – | – | – | catalepsy, analgesia, hypolocomotion (mice; first phase (10 mg/kg)): no significant catalepsy, analgesia, or hypolocomotion; also recorded: no significant catalepsy, analgesia, or hypo locomotion; hypothermic effect (decrease) (mice; first phase (10 mg/kg)): less than 0.5 °C; activity type corroborated by Tetrad Test (mice; mice): CB1 partial agonistic activity; catalepsy and analgesia (mice; second phase (20 mg/kg)): significant direct effect on catalepsy and analgesia; also recorded: very significant catalepsy and analgesia effect; hypolocomotion (mice; second phase (20 mg/kg)): slight direct effect on hypolocomotion; hypothermic effect (mice; second phase (20 mg/kg)): appears to reverse; also recorded: reversal in the second phase; formalin test outcome (rodents): possible analgesic and anti-inflammatory properties
CCCc1cc(O)c2c(c1)OC(C)(C)[C@@H]1CCC(C)=C[C@@H]21 (single isomer, unassigned) [THCV, (—)trans-delta-9-tetrahydrocannabivarin] | 22 ± 5 nM | > 10000 nM | > 10000 nM | 105 ± 21 nM | –
